Reference: patent US12708640B2, “Synergistic nutritional compositions for treating vestibular associated neurodegenerative diseases” (CELAGENEX RESEARCH (INDIA) PVT. LTD., priority 2021, dated 2026)

Key:
Format in all cases: in vivo, Albino Wistar rat
[1] = Rat body weight in the sodium arsanilate vestibular dysfunction study; conditions: rats, group value; for Body Weight, End of the treatment: after 7 days daily treatment
Description: (§1) “Evaluation of test substance on sodium arsanilate induced vestibular dysfunction (Vertigo disorder) in wistar rats”.
(§2) • Test Species: Rat • Strain: Albino Wistar • Sex: Male/Female • Age: 6-8 Weeks • Body Weight: 180-200 g • Source: In house breed • Total No. of Animals: 42 Animals (7 groups of 6 animals each) • Feed: Normal chow diet (Purina lab diet 5L79 Rat and Mouse 18%) (PMI Nutrition International) Environmental Conditions:
(§3) All the animals were acclimatized for at least 5 days under controlled environmental condition. Total 42 animals were divided into seven groups consisting of 6 animals per group. Normal control (G1) group receiving vehicle, disease control (G2) group receiving sodium arsanilate injection only, standard group (G3) receiving reference standard (vertin) and treatment groups G4, G5, G6 & G7 were treated with the test substances. All the groups (except normal control group) were induced with sodium arsanilate via intratymphanic injection. All the treatment groups were administered daily for 7 consecutive days.
Individual body weights were recorded at receipt, on the day of randomization, on the first day of treatment before dosing and weekly once thereafter throughout the treatment period. The body weight changes for all the animals were calculated and reported along with the body weight data.

[2] = system: sodium arsanilate induced vestibular dysfunction (Vertigo disorder) in wistar rats; assay: Open field test; conditions: for Ambulation Score [the number of open-field sections entered by the rat], Average / Defecation [the number of fecal boli deposited in the open-field], Average / Grooming [the number of grooming bouts exhibited by the rat], Average / Rearing Responses [the number of times the animal raised both forefeet off the floor and extended its body], Average: group average of 6 animals; for % Improvement in Ambulation score wrt. G2 / % Improvement in Defecation wrt. G2 / % Improvement in Grooming wrt. G2 / % Improvement in Rearing Responses wrt. G2: open field test, wrt. disease control G2
Description: as §1
(§4) Vestibular dysfunction was induced in rats by intratympanic injection of sodium arsanilate an ototoxic compound. Sodium arsanilate is an arsenic derivative and intratympanic injection result was vestibular nerve degeneration in brain stem with concomitant loss of labyrinthine righting and reduced postural support with exaggerated head dorsiflexion.
as §3
The open-field was circular, with a diameter of 90 cm, and enclosed by a wall 30 cm high. The floor and wall of the open-field was black and the floor was divided into 25 equal area sections by thin white lines. The floor was covered with a transparent plastic coating. The open-field apparatus was located inside a large wooden frame which surrounded on all sides by black curtains. The field was illuminated by two 60-W fluorescent lights located 100 cm above the floor.
At the start of each session the rats were placed in one of the peripheral sections of the open-field and the animal's behavior was monitored by an observer for 10 consecutive minutes. […] At the end of each session the rat was returned to its home cage and the floor of the open-field was cleaned and sponged over with a weak vinegar solution to remove any residual odors.

[3] = Rat feed consumption in the sodium arsanilate vestibular dysfunction study; conditions: rats, group value
Description: as §1, §2, §3
The feed consumption was calculated and reported on a daily basis throughout the study period.

[4] = system: sodium arsanilate induced vestibular dysfunction (Vertigo disorder) in wistar rats; assay: Air righting reflex (air reflecting index); conditions: for Air Righting Reflex (% of Rats that successfully righted themselves within 5 s), Average: group average of 6 animals
Description: as §1, §4, §3
A sponge was spread on a flat surface and the animals were placed in a supine position in the air 50 cm away above the sponge, following which the animal was dropped horizontally.
Four-legged smooth landing on the ground was considered as positive (normal animal), whereas the body or other regions landing first was considered vestibular dysfunction animals. The positive landing rate (%) of each rat in each group was recorded.

[5] = system: sodium arsanilate induced vestibular dysfunction (Vertigo disorder) in wistar rats; assay: Contact righting reflex; conditions: for Contact righting reflex (time), Average: group average of 6 animals
Description: as §1, §4, §3
The rats were placed in a syringe core tube in a supine position, following which the recovery time for position correction to be recorded. Normal rats turned over their body position in a few seconds.

[6] = animal 1, end of 7-day treatment
[7] = animal 2, end of 7-day treatment
[8] = animal 3, end of 7-day treatment
[9] = animal 4, end of 7-day treatment
[10] = animal 5, end of 7-day treatment
[11] = animal 6, end of 7-day treatment
[12] = animal 1, recovery time for position correction
[13] = animal 2, recovery time for position correction
[14] = animal 3, recovery time for position correction
[15] = animal 4, recovery time for position correction
[16] = animal 5, recovery time for position correction
[17] = animal 6, recovery time for position correction

O=c1ccn([C@@H]2O[C@H](COP(=O)(O)O)[C@@H](O)[C@H]2O)c(=O)[nH]1 [Group 5, Uridine monophosphate]
Body Weight, End of the treatment [1]: 190.08 gm | Body Weight, Initial [1]: 189.02 gm | Ambulation Score [the number of open-field sections entered by the rat] ([2]; animal 1): 200 | Defecation [the number of fecal boli deposited in the open-field] ([2]; animal 1): 4 | Grooming [the number of grooming bouts exhibited by the rat] ([2]; animal 1): 2 | Rearing Responses [the number of times the animal raised both forefeet off the floor and extended its body] ([2]; animal 1): 3 | Ambulation Score [the number of open-field sections entered by the rat] ([2]; animal 2): 180 | Defecation [the number of fecal boli deposited in the open-field] ([2]; animal 2): 2 | Grooming [the number of grooming bouts exhibited by the rat] ([2]; animal 2): 4 | Rearing Responses [the number of times the animal raised both forefeet off the floor and extended its body] ([2]; animal 2): 4 | Ambulation Score [the number of open-field sections entered by the rat] ([2]; animal 3): 190 | Defecation [the number of fecal boli deposited in the open-field] ([2]; animal 3): 3 | Grooming [the number of grooming bouts exhibited by the rat] ([2]; animal 3): 3 | Rearing Responses [the number of times the animal raised both forefeet off the floor and extended its body] ([2]; animal 3): 3 | Ambulation Score [the number of open-field sections entered by the rat] ([2]; animal 4): 160 | Defecation [the number of fecal boli deposited in the open-field] ([2]; animal 4): 4 | Grooming [the number of grooming bouts exhibited by the rat] ([2]; animal 4): 3 | Rearing Responses [the number of times the animal raised both forefeet off the floor and extended its body] ([2]; animal 4): 4 | Ambulation Score [the number of open-field sections entered by the rat] ([2]; animal 5): 200 | Defecation [the number of fecal boli deposited in the open-field] ([2]; animal 5): 3 | Grooming [the number of grooming bouts exhibited by the rat] ([2]; animal 5): 4 | Rearing Responses [the number of times the animal raised both forefeet off the floor and extended its body] ([2]; animal 5): 3 | Ambulation Score [the number of open-field sections entered by the rat] ([2]; animal 6): 190 | Defecation [the number of fecal boli deposited in the open-field] ([2]; animal 6): 4 | Grooming [the number of grooming bouts exhibited by the rat] ([2]; animal 6): 4 | Rearing Responses [the number of times the animal raised both forefeet off the floor and extended its body] ([2]; animal 6): 4 | Ambulation Score [the number of open-field sections entered by the rat], Average [2]: 186.67 | Defecation [the number of fecal boli deposited in the open-field], Average [2]: 3.33 | Grooming [the number of grooming bouts exhibited by the rat], Average [2]: 3.33 | Rearing Responses [the number of times the animal raised both forefeet off the floor and extended its body], Average [2]: 3.50 | % Improvement in Ambulation score wrt. G2 [2]: 25.83% | % Improvement in Defecation wrt. G2 [2]: 23.08% | % Improvement in Grooming wrt. G2 [2]: 57.45% | % Improvement in Rearing Responses wrt. G2 [2]: 32.81% | Feed Consumption, 0 day [3]: 15.50 gm | Feed Consumption, 7th day [3]: 16.67 gm | Air Righting Reflex (% successfully righted within 5 s) ([4]; animal 1): 40% | Air Righting Reflex, Successful out of 5 [4, 6]: 2 | Air Righting Reflex (% successfully righted within 5 s) ([4]; animal 2): 40% | Air Righting Reflex, Successful out of 5 [4, 7]: 2 | Air Righting Reflex (% successfully righted within 5 s) ([4]; animal 3): 20% | Air Righting Reflex, Successful out of 5 [4, 8]: 1 | Air Righting Reflex (% successfully righted within 5 s) ([4]; animal 4): 40% | Air Righting Reflex, Successful out of 5 [4, 9]: 2 | Air Righting Reflex (% successfully righted within 5 s) ([4]; animal 5): 20% | Air Righting Reflex, Successful out of 5 [4, 10]: 1 | Air Righting Reflex (% successfully righted within 5 s) ([4]; animal 6): 40% | Air Righting Reflex, Successful out of 5 [4, 11]: 2 | Air Righting Reflex (% of Rats that successfully righted themselves within 5 s), Average [4]: 33.33% | Contact righting reflex (time) [5, 12]: 30 s | Contact righting reflex (time) [5, 13]: 29 s | Contact righting reflex (time) [5, 14]: 28 s | Contact righting reflex (time) [5, 15]: 27 s | Contact righting reflex (time) [5, 16]: 30 s | Contact righting reflex (time) [5, 17]: 26 s | Contact righting reflex (time), Average [5]: 28.33 s | contact righting reflex, improvement (wrt. the Disease Control) [5]: ≤ 30%

CNCCc1ccccn1 [Group 3, reference compound]
Body Weight, End of the treatment [1]: 188.10 gm | Body Weight, Initial [1]: 186.83 gm | Ambulation Score [the number of open-field sections entered by the rat] ([2]; animal 1): 200 | Defecation [the number of fecal boli deposited in the open-field] ([2]; animal 1): 3 | Grooming [the number of grooming bouts exhibited by the rat] ([2]; animal 1): 4 | Rearing Responses [the number of times the animal raised both forefeet off the floor and extended its body] ([2]; animal 1): 5 | Ambulation Score [the number of open-field sections entered by the rat] ([2]; animal 2): 210 | Defecation [the number of fecal boli deposited in the open-field] ([2]; animal 2): 4 | Grooming [the number of grooming bouts exhibited by the rat] ([2]; animal 2): 3 | Rearing Responses [the number of times the animal raised both forefeet off the floor and extended its body] ([2]; animal 2): 4 | Ambulation Score [the number of open-field sections entered by the rat] ([2]; animal 3): 215 | Defecation [the number of fecal boli deposited in the open-field] ([2]; animal 3): 2 | Grooming [the number of grooming bouts exhibited by the rat] ([2]; animal 3): 3 | Rearing Responses [the number of times the animal raised both forefeet off the floor and extended its body] ([2]; animal 3): 6 | Ambulation Score [the number of open-field sections entered by the rat] ([2]; animal 4): 230 | Defecation [the number of fecal boli deposited in the open-field] ([2]; animal 4): 3 | Grooming [the number of grooming bouts exhibited by the rat] ([2]; animal 4): 5 | Rearing Responses [the number of times the animal raised both forefeet off the floor and extended its body] ([2]; animal 4): 4 | Ambulation Score [the number of open-field sections entered by the rat] ([2]; animal 5): 220 | Defecation [the number of fecal boli deposited in the open-field] ([2]; animal 5): 4 | Grooming [the number of grooming bouts exhibited by the rat] ([2]; animal 5): 6 | Rearing Responses [the number of times the animal raised both forefeet off the floor and extended its body] ([2]; animal 5): 5 | Ambulation Score [the number of open-field sections entered by the rat] ([2]; animal 6): 225 | Defecation [the number of fecal boli deposited in the open-field] ([2]; animal 6): 3 | Grooming [the number of grooming bouts exhibited by the rat] ([2]; animal 6): 5 | Rearing Responses [the number of times the animal raised both forefeet off the floor and extended its body] ([2]; animal 6): 4 | Ambulation Score [the number of open-field sections entered by the rat], Average [2]: 216.67 | Defecation [the number of fecal boli deposited in the open-field], Average [2]: 3.17 | Grooming [the number of grooming bouts exhibited by the rat], Average [2]: 4.33 | Rearing Responses [the number of times the animal raised both forefeet off the floor and extended its body], Average [2]: 4.67 | % Improvement in Ambulation score wrt. G2 [2]: 13.91% | % Improvement in Defecation wrt. G2 [2]: 26.92% | % Improvement in Grooming wrt. G2 [2]: 44.68% | % Improvement in Rearing Responses wrt. G2 [2]: 43.75% | Feed Consumption, 0 day [3]: 15.33 gm | Feed Consumption, 7th day [3]: 16.00 gm | Air Righting Reflex (% successfully righted within 5 s) ([4]; animal 1): 40% | Air Righting Reflex, Successful out of 5 [4, 6]: 2 | Air Righting Reflex (% successfully righted within 5 s) ([4]; animal 2): 60% | Air Righting Reflex, Successful out of 5 [4, 7]: 3 | Air Righting Reflex (% successfully righted within 5 s) ([4]; animal 3): 40% | Air Righting Reflex, Successful out of 5 [4, 8]: 2 | Air Righting Reflex (% successfully righted within 5 s) ([4]; animal 4): 60% | Air Righting Reflex, Successful out of 5 [4, 9]: 3 | Air Righting Reflex (% successfully righted within 5 s) ([4]; animal 5): 40% | Air Righting Reflex, Successful out of 5 [4, 10]: 2 | Air Righting Reflex (% successfully righted within 5 s) ([4]; animal 6): 60% | Air Righting Reflex, Successful out of 5 [4, 11]: 3 | Air Righting Reflex (% of Rats that successfully righted themselves within 5 s), Average [4]: 50.00% | Contact righting reflex (time) [5, 12]: 21 s | Contact righting reflex (time) [5, 13]: 26 s | Contact righting reflex (time) [5, 14]: 28 s | Contact righting reflex (time) [5, 15]: 23 s | Contact righting reflex (time) [5, 16]: 27 s | Contact righting reflex (time) [5, 17]: 26 s | Contact righting reflex (time), Average [5]: 25.17 s | contact righting reflex, improvement (wrt. the Disease Control) [5]: around 38%
